System: 636577-100-R-J1-PDC complex spheroid viability
Assay: Anticancer human tumor 636577-100-R-J1-PDC patient-derived endometrial adenocarcinoma cell line growth inhibition [GQUAD]
Settings: for IC50: curve of first compound; for viability, T/C: stronger effect = lower value
Procedure, shortened: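 Tumor cells were grown as complex spheroids with HUVEC endothelial cells and mesenchymal stem cells as stroma. G-quadruplex stabilizers were combined with targeted agents over half-log dilutions from near the clinical Cmax, or from 10 microM.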

[1] = second compound 0.0316 µM, first compound 0.0316 µM
[2] = second compound 0.0316 µM, first compound 0.1 µM
[3] = second compound 0.0316 µM, first compound 0.316 µM
[4] = second compound 0.0316 µM, first compound 1 µM
[5] = second compound 0.0316 µM, first compound 3.16 µM
[6] = second compound 0.0316 µM, first compound 10 µM
[7] = second compound 0.1 µM, first compound 0.0316 µM
[8] = second compound 0.1 µM, first compound 0.1 µM
[9] = second compound 0.1 µM, first compound 0.316 µM
[10] = second compound 0.1 µM, first compound 1 µM
[11] = second compound 0.1 µM, first compound 3.16 µM
[12] = second compound 0.1 µM, first compound 10 µM
[13] = second compound 0.316 µM, first compound 0.0316 µM
[14] = second compound 0.316 µM, first compound 0.1 µM
[15] = second compound 0.316 µM, first compound 0.316 µM
[16] = second compound 0.316 µM, first compound 1 µM
[17] = second compound 0.316 µM, first compound 3.16 µM
[18] = second compound 0.316 µM, first compound 10 µM
[19] = second compound 1 µM, first compound 0.0316 µM
[20] = second compound 1 µM, first compound 0.1 µM
[21] = second compound 1 µM, first compound 0.316 µM
[22] = second compound 1 µM, first compound 1 µM
[23] = second compound 1 µM, first compound 3.16 µM
[24] = second compound 1 µM, first compound 10 µM
[25] = second compound 3.16 µM, first compound 0.0316 µM
[26] = second compound 3.16 µM, first compound 0.1 µM
[27] = second compound 3.16 µM, first compound 0.316 µM
[28] = second compound 3.16 µM, first compound 1 µM
[29] = second compound 3.16 µM, first compound 3.16 µM
[30] = second compound 3.16 µM, first compound 10 µM
[31] = second compound 10 µM, first compound 0.0316 µM
[32] = second compound 10 µM, first compound 0.1 µM
[33] = second compound 10 µM, first compound 0.316 µM
[34] = second compound 10 µM, first compound 1 µM
[35] = second compound 10 µM, first compound 3.16 µM
[36] = second compound 10 µM, first compound 10 µM
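Also: viability read after seven days of drug exposure.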
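For viability, T/C in this document: luminescence signal used as a proxy for viable cells; 100% = DMSO vehicle control wells.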

C#Cc1c(F)ccc2cc(O)cc(-c3ncc4c(N5CC6CCC(C5)N6)nc(OCC56CCCN5CC(F)C6)nc4c3F)c12 (stereo not drawn) + Cc1[nH]c2ccc(F)cc2c1-c1nc2c3cccnc3c3ncccc3c2[nH]1
IC50 (second compound 0.0316 µM): 6400 nM
IC50 (second compound 0.1 µM): 4770 nM
IC50 (second compound 0.316 µM): 4540 nM
IC50 (second compound 1 µM): 1750 nM
IC50 (second compound 3.16 µM): < 31.6 nM
IC50 (second compound 10 µM): < 31.6 nM
viability, T/C [1]: 88.5%
viability, T/C [2]: 99.4%
viability, T/C [3]: 87.9%
viability, T/C [4]: 78.7%
viability, T/C [5]: 66.7%
viability, T/C [6]: 39.9%
viability, T/C [7]: 108%
viability, T/C [8]: 93.7%
viability, T/C [9]: 80.7%
viability, T/C [10]: 59.5%
viability, T/C [11]: 59.8%
viability, T/C [12]: 41.2%
viability, T/C [13]: 74.3%
viability, T/C [14]: 61%
viability, T/C [15]: 72.8%
viability, T/C [16]: 78.6%
viability, T/C [17]: 56.1%
viability, T/C [18]: 36.7%
viability, T/C [19]: 53%
viability, T/C [20]: 78.2%
viability, T/C [21]: 80.5%
viability, T/C [22]: 51.8%
viability, T/C [23]: 44.2%
viability, T/C [24]: 28.1%
viability, T/C [25]: 24.1%
viability, T/C [26]: 23.5%
viability, T/C [27]: 23.5%
viability, T/C [28]: 22.6%
viability, T/C [29]: 19.3%
viability, T/C [30]: 12.7%
viability, T/C [31]: 31%
viability, T/C [32]: 39.9%
viability, T/C [33]: 38.8%
viability, T/C [34]: 28.5%
viability, T/C [35]: 24.9%
viability, T/C [36]: 15.8%

CC(=O)O[C@H]1C(=O)[C@@]2(C)[C@H]([C@H](OC(=O)c3ccccc3)[C@]3(O)C[C@H](OC(=O)[C@H](O)[C@@H](NC(=O)c4ccccc4)c4ccccc4)C(C)=C1C3(C)C)[C@]1(OC(C)=O)CO[C@@H]1C[C@@H]2O + Cc1[nH]c2ccc(F)cc2c1-c1nc2c3cccnc3c3ncccc3c2[nH]1
IC50 (second compound 0.0316 µM): < 31.6 nM
IC50 (second compound 0.1 µM): < 31.6 nM
IC50 (second compound 0.316 µM): < 31.6 nM
IC50 (second compound 1 µM): < 31.6 nM
IC50 (second compound 3.16 µM): < 31.6 nM
IC50 (second compound 10 µM): < 31.6 nM
viability, T/C [1]: 16.9%
viability, T/C [2]: 14.4%
viability, T/C [3]: 13.5%
viability, T/C [4]: 12%
viability, T/C [5]: 11.2%
viability, T/C [6]: 11.2%
viability, T/C [7]: 15.5%
viability, T/C [8]: 13.5%
viability, T/C [9]: 10.8%
viability, T/C [10]: 9.49%
viability, T/C [11]: 11.1%
viability, T/C [12]: 9.8%
viability, T/C [13]: 17.3%
viability, T/C [14]: 13.2%
viability, T/C [15]: 11.6%
viability, T/C [16]: 10.4%
viability, T/C [17]: 9.79%
viability, T/C [18]: 11.4%
viability, T/C [19]: 16.5%
viability, T/C [20]: 12%
viability, T/C [21]: 12%
viability, T/C [22]: 12.1%
viability, T/C [23]: 10.9%
viability, T/C [24]: 11%
viability, T/C [25]: 15.3%
viability, T/C [26]: 11.7%
viability, T/C [27]: 13.8%
viability, T/C [28]: 12.5%
viability, T/C [29]: 10.7%
viability, T/C [30]: 8.71%
viability, T/C [31]: 15.6%
viability, T/C [32]: 13.5%
viability, T/C [33]: 10.5%
viability, T/C [34]: 11.4%
viability, T/C [35]: 12.7%
viability, T/C [36]: 12.6%

Cc1cccc(N(C)C(=O)C2C(O)CCN2c2nc(C)cc(C(F)(F)F)c2C#N)c1 (stereo not drawn) + Cc1[nH]c2ccc(F)cc2c1-c1nc2c3cccnc3c3ncccc3c2[nH]1
IC50 (second compound 0.0316 µM): 3160 nM
IC50 (second compound 0.1 µM): > 10000 nM
IC50 (second compound 0.316 µM): > 10000 nM
IC50 (second compound 1 µM): > 10000 nM
IC50 (second compound 3.16 µM): < 31.6 nM
IC50 (second compound 10 µM): > 10000 nM
viability, T/C [1]: 89%
viability, T/C [2]: 77.5%
viability, T/C [3]: 89.5%
viability, T/C [4]: 39.3%
viability, T/C [5]: 61.9%
viability, T/C [6]: 61%
viability, T/C [7]: 76.3%
viability, T/C [8]: 90.3%
viability, T/C [9]: 81%
viability, T/C [10]: 57.7%
viability, T/C [11]: 79%
viability, T/C [12]: 69.2%
viability, T/C [13]: 71.4%
viability, T/C [14]: 85.8%
viability, T/C [15]: 97.8%
viability, T/C [16]: 48.6%
viability, T/C [17]: 77.5%
viability, T/C [18]: 72.4%
viability, T/C [19]: 62.8%
viability, T/C [20]: 65.3%
viability, T/C [21]: 72.4%
viability, T/C [22]: 54.9%
viability, T/C [23]: 49.9%
viability, T/C [24]: 54.2%
viability, T/C [25]: 37.2%
viability, T/C [26]: 40.3%
viability, T/C [27]: 54.2%
viability, T/C [28]: 48.6%
viability, T/C [29]: 39.1%
viability, T/C [30]: 41.3%
viability, T/C [31]: 65.1%
viability, T/C [32]: 58.8%
viability, T/C [33]: 80.8%
viability, T/C [34]: 55.1%
viability, T/C [35]: 81%
viability, T/C [36]: 56.4%

Cn1ncnc1[C@H]1c2n[nH]c(=O)c3cc(F)cc(c23)N[C@@H]1c1ccc(F)cc1 + Cc1[nH]c2ccc(F)cc2c1-c1nc2c3cccnc3c3ncccc3c2[nH]1
IC50 (second compound 0.0316 µM): 29.3 nM
IC50 (second compound 0.1 µM): 77.7 nM
IC50 (second compound 0.316 µM): 34.5 nM
IC50 (second compound 1 µM): 82.7 nM
IC50 (second compound 3.16 µM): < 0.999 nM
IC50 (second compound 10 µM): 86.6 nM
viability, T/C (second compound 0.0316 µM, first compound 0.000999 µM): 49.4%
viability, T/C (second compound 0.0316 µM, first compound 0.00316 µM): 88%
viability, T/C (second compound 0.0316 µM, first compound 0.00999 µM): 94.7%
viability, T/C [1]: 48%
viability, T/C (second compound 0.0316 µM, first compound 0.0999 µM): 46.8%
viability, T/C [3]: 39.2%
viability, T/C (second compound 0.1 µM, first compound 0.000999 µM): 82.3%
viability, T/C (second compound 0.1 µM, first compound 0.00316 µM): 110%
viability, T/C (second compound 0.1 µM, first compound 0.00999 µM): 85%
viability, T/C [7]: 59%
viability, T/C (second compound 0.1 µM, first compound 0.0999 µM): 54.2%
viability, T/C [9]: 30.8%
viability, T/C (second compound 0.316 µM, first compound 0.000999 µM): 64.6%
viability, T/C (second compound 0.316 µM, first compound 0.00316 µM): 102%
viability, T/C (second compound 0.316 µM, first compound 0.00999 µM): 68.7%
viability, T/C [13]: 51.8%
viability, T/C (second compound 0.316 µM, first compound 0.0999 µM): 50.9%
viability, T/C [15]: 35.7%
viability, T/C (second compound 1 µM, first compound 0.000999 µM): 35.3%
viability, T/C (second compound 1 µM, first compound 0.00316 µM): 76.3%
viability, T/C (second compound 1 µM, first compound 0.00999 µM): 63.1%
viability, T/C [19]: 68.7%
viability, T/C (second compound 1 µM, first compound 0.0999 µM): 47.9%
viability, T/C [21]: 38.4%
viability, T/C (second compound 3.16 µM, first compound 0.000999 µM): 36%
viability, T/C (second compound 3.16 µM, first compound 0.00316 µM): 36.9%
viability, T/C (second compound 3.16 µM, first compound 0.00999 µM): 43.2%
viability, T/C [25]: 37.5%
viability, T/C (second compound 3.16 µM, first compound 0.0999 µM): 35.5%
viability, T/C [27]: 25.3%
viability, T/C (second compound 10 µM, first compound 0.000999 µM): 62.5%
viability, T/C (second compound 10 µM, first compound 0.00316 µM): 47%
viability, T/C (second compound 10 µM, first compound 0.00999 µM): 62.2%
viability, T/C [31]: 57.9%
viability, T/C (second compound 10 µM, first compound 0.0999 µM): 46.5%
viability, T/C [33]: 36.4%

Reference: PubChem BioAssay AID2060504 (Molecular Pharmacology Branch, DTP, NCI, 2025)
